How the values were obtained:
[1] = Measurement of oxidation induction time (OIT) by DSC; type: physicochemical; details: with liquid polyisoprene LIR-50, isothermal 180° C., switch from N2 to O2 atmosphere 50 mL/min, DSC peak; measuring accuracy ± 10 min
Experimental: The compound of formula II) was investigated under laboratory conditions for its potential protective effect as an aging stabilizer by measurement of the oxidation induction time.
To this end the compounds of formula II) and 6-PPD in each case together with a polymer (liquid synthetic polyisoprene (IR), LIR-50, Kuraray, weight average molecular weight distribution Mw=54 000 g/mol, glass transition temperature Tg=−63° C.) were heated at constant temperature (180° C.) until onset of oxidation (start temperature 35° C., heating to 170° C. at a heating rate of 20 K/min (kelvin per minute), heating to 180° C. at a heating rate of 1 K/min; purge gas: nitrogen (N2), volume flow 50 mL/min).
The specimen was isothermally maintained at 180° C. under an N2 atmosphere and the atmosphere was then switched to an O2 atmosphere (volume flow 50 mL/min).
Oxidation was determined via a peak using DSC (differential scanning calorimetry).
The time in minutes to oxidation was measured.

[2] = basic structure compared with aniline; cited from earlier work

| Molecule | Time to oxidation (oxidation induction time) [1] [min] | Genotoxicity / mutagenicity according to safety data sheet [2] |
| --- | --- | --- |
| CC(C)CC(C)Nc1ccc(Nc2ccccc2)cc1 (stereo not drawn) [6-PPD, N-(1,3-dimethylbutyl)-N′-phenyl-p-phenylenediamine] | 116 ± 10 | – |
| CC(C)CC(C)Nc1ccc2[nH]c3ccccc3c(=O)c2c1 (stereo not drawn) [Compound of formula II), 2-(1,3-dimethylbutylamino)-acridine-9(10H)-one] | 259 ± 10 | – |
| acridinone | – | neither genotoxic nor mutagenic |
